We go through 2 substances from patent publication US11453652B2, “Di-macrocycles” (LUMIPHORE, INC., priority 2013, dated 2022).

{AmC3} = aminopropyl group

A short description of the data set: Gel electrophoresis mobility shift assay of metal cation complexation. Conditions: 20% polyacrylamide gel, 8M urea; incubated 55° C. 15 minutes, HEPES pH 7.5; compared with no metal cation. The data set is classed as binding. On the procedure:
For use in certain applications, such as acting as a bifunctional chelating agent to attach a radioisotope to a site-directing molecule, it is necessary that the chelator be able to coordinate to the metal ion of interest in a kinetically facile and thermodynamically stable manner. […] In this experiment, a conjugate of 12 with a small (18 base length) DNA oligomer, 15 was treated with a solution containing a metal cation. The electrophoretic mobility of the conjugate on a polyacrylamide gel was then compared with that of the conjugate which was not exposed to the solution of metal cation. […] The gel electrophoretic mobility of the DNA oligomer 14 that was not conjugated to 12, present in the solution of 15, was also compared with and without exposure to the metal cation solution.
C=control, no metal cations. Y, Eu, Tb, Zr, Th=yttrium(III), europium(III), terbium(III), zirconium(IV), and thorium(IV), respectively. Arrow indicates luminescent band observed under hand held ultraviolet lamp.
In particular, a solution of DNA oligomer (3 μL, 33 μM, all concentrations final) was mixed with a solution of metal cation (2 μL, 625 μM) or an equal volume of water, additional water (2.5 μL) and a buffer solution (2.5 μL, 50 mM HEPES, pH 7.5). […]

As for “Conjugate 15: conjugate of di-macrocycle 12 with 18-base DNA oligonucleotide 14 (DNA AAGGTCATCCATGACAAC; DNA, backbone and methylation of C not given here; di-macrocycle 12 conjugated)”, the “electrophoretic mobility following treatment with the metal cation solution” value was “migrates more slowly”.

As for “unmodified oligonucleotide: DNA 18-base oligonucleotide 5′-AAGGTCATCCATGACAAC-3′ with 5′-aminopropyl group, not conjugated to 12 (DNA, 5' {AmC3}, backbone and methylation of C not given here)”, the “electrophoretic mobility following treatment with the metal cation solution” value is “unaffected”.
